According to publication PMC6273932, “Xanthium strumarium as an Inhibitor of α-Glucosidase, Protein Tyrosine Phosphatase 1β, Protein Glycation and ABTS^+ for Diabetic and Its Complication” (Molecules, 2016):
Converted amounts (≈) assume the structure as drawn.

Legend:
[1] = test system: α-glucosidase from Saccharomyces sp.; assay: α-glucosidase inhibitory activity assay (pNPG substrate, absorbance 405 nm); type: biochemical
Source text: ^1H- and ^13C-NMR spectra and correlation NMR spectra such as COSY, HMBC, HMQC, and DEPT were obtained from a Bruker Avance DPX 400 (or 600) spectrometer (Berlin, Germany). These were obtained at operating frequencies of 400 MHz (^1H) and 100 (or 150) MHz (^13C) with CD3OD, (CD3)2SO, (CD3)2CO, or D2O and TMS was used as an internal standard; chemical shifts were reported in δ values. The α-glucosidase from Saccharomyces sp. (SSG) was purchased from Wako Pure Chemical Industries Ltd (Tokyo, Japan). […] All other chemicals and reagents used were of analytical grade.
The α-glucosidase inhibitory activity of the extracts and fractions was determined using a modified procedure reported method with a slight modification. The α-glucosidase activity was measured using the substrate p-nitrophenyl-α-D-glucopyranoside (pNPG), which is hydrolyzed by α-glucosidase to release the product p-nitrophenol, a colorant that can be monitored at 405 nm. The initial concentration of the enzyme solution was 0.62 unit/mL in 0.1 M phosphate buffer (pH 6.9) and the initial concentration of the substrate solution was 2 mM in the same phosphate buffer. The enzyme solution was mixed with water and the samples or controls in a clear 96-well microplate (flat bottom) and the reaction was initiated by addition of the substrate to the solution. The plates were incubated at 37 °C for 5 min and the reaction was terminated by the addition of 0.1 M Na2CO3. […] Background absorbance was determined using a non-enzyme control microplate containing the buffer and was subtracted from the absorbance of the samples and controls.

[2] = test system: advanced glycation end products (AGEs); assay: AGEs inhibitory activity, bovine serum albumin-methylglyoxal assay (fluorescence); type: biochemical; conditions: 100 μg/mL
Experimental: The modified procedure of Lee et al. was followed. Bovine serum albumin (10 mg/mL) was incubated with 5 mM methylglyoxal in sodium phosphate buffer (100 mM; pH 7.4). […] All of the reagents and samples were […] by filtration through 0.2 μm membrane filters and the mixture was incubated at 37 °C for 7 days. The fluorescence intensity was measured at an excitation wavelength of 330 nm and an emission wavelength of 410 nm with a LS50B fluorescence spectrometer Perkin-Elmer Ltd., (Buckinghamshire, FLS, UK). Aminoguanidine was also tested as a known inhibitor.

[3] = target: T1, protein tyrosine phosphatase 1β (PTP1β) (Homo sapiens, UniProt P18031); assay: PTP1β inhibitory activity assay (colorimetric kit, IR5 phosphopeptide substrate); type: biochemical; conditions: - is no activity; for inhibition at 10 µg/mL: 10 μg/mL; for IC50: isolated compounds
T1 sequence (P18031 1-322 limits assumed): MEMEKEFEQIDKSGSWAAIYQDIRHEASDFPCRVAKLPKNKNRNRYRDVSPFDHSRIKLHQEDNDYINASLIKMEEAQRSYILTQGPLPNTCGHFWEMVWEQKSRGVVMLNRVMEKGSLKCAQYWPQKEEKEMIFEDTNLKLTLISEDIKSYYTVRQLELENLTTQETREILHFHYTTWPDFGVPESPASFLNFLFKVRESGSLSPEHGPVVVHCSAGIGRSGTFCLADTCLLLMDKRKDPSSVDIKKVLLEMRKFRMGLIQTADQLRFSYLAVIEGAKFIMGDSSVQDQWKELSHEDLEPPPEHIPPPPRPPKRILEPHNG
Experimental: PTP1β tyrosine phosphatase drug discovery kit is a colorimetric, non-radioactive assay designed to measure the phosphatase activity of purified PTP1β. […] Following incubation at 37 °C for 30 min, the reaction was terminated with the BIOMOL RED^TM reagent. The amount of […] produced was estimated by measuring the absorbance at 620 nm. The non-enzymatic hydrolysis of the IR5 substrate was corrected by measuring the increase in absorbance at 620 nm obtained in the absence of PTP1β enzyme.

[4] = test system: recombinant aldose reductase; conditions: compounds from X. strumarium; cited from earlier work
[5] = test system: rat lens aldose reductase; conditions: compounds from X. strumarium; cited from earlier work
PTP1β = test system: PTP1β; parameters: method as in ref 16 (Hwang et al.); conditions: compounds isolated from Zea mays L.; ref 16 (Hwang et al.); cited from earlier work
α-glucosidase = target: α-glucosidase; parameters: method as in ref 15 (Chen et al.); conditions: compounds isolated from aerial parts of Gynura divaricate; ref 15 (Chen et al.); read-out: inhibitory effects against α-glucosidase; cited from earlier work

| Molecule | Inhibition (%) α-glucosidase ([1]; 50 μg/mL, - is no activity) | inhibition at 10 µg/mL [3] | IC50 [3] | Inhibition (%) AGEs [2] | recombinant aldose reductase inhibitory activity [4] | rat lens aldose reductase inhibitory activity [5] | other results |
| --- | --- | --- | --- | --- | --- | --- | --- |
| O=C(/C=C/c1ccc(O)c(O)c1)O[C@@H]1C[C@](O)(C(=O)O)C[C@@H](O)[C@H]1O [compound 5, chlorogenic acid] | 6.60% | – | – | 7.47% | – | – | – |
| O=C(/C=C/c1ccc(O)c(O)c1)O[C@@H]1C[C@](O)(C(=O)O)C[C@@H](OC(=O)/C=C/c2ccc(O)c(O)c2)[C@H]1O [compound 10, 3,5-di-O-caffeoylquinic acid] | 52.85% | 18.4% | > 19.4 µM | 42.91% | strong | strong | Inhibition (%) α-glucosidase ([1]; 5 μg/mL): 9.34%; Inhibition (%) α-glucosidase ([1]; 25 μg/mL): 33.72%; Inhibition (%) α-glucosidase ([1]; 100 μg/mL): 99.44%; IC50 ([1]; isolated compounds): 88.1 µM; IC50 α-glucosidase ([1]; isolated compounds, - is no activity): 45.48 ± 4.52 µg/mL (≈ 88.1 µM) |
| O=C(/C=C/c1ccc(O)c(O)c1)O[C@@H]1C[C@](OC(=O)/C=C/c2ccc(O)c(O)c2)(C(=O)O)C[C@@H](OC(=O)/C=C/c2ccc(O)c(O)c2)[C@H]1O [compound 13, 1,3,5-tri-O-caffeoylquinic acid] | 22.05% | 39.2% | > 14.7 µM | 40.22% | strong | strong | – |
| O=c1c(O[C@@H]2O[C@H](CO)[C@@H](O)[C@H](O)[C@H]2O)c(-c2ccc(O)c(O)c2)oc2cc(O)cc(O)c12 [hirsutrin] | – | – | – | – | – | – | PTP1β inhibitory activity IC50 (PTP1β): no activity |
| COC(=O)[C@]1(O)C[C@@H](O)[C@@H](OC(=O)/C=C/c2ccc(O)c(O)c2)[C@H](OC(=O)/C=C/c2ccc(O)c(O)c2)C1 [methyl 3,4-di-O-CQA] | – | – | – | – | – | – | IC50 (α-glucosidase): 12.2 µM |
| methyl 4,5-di-O-CQA | – | – | – | – | – | – | IC50 (α-glucosidase): 13.1 µM |

Now from value to molecule, other results behind:

| Inhibition (%) α-glucosidase ([1]; 50 μg/mL, - is no activity) | inhibition at 10 µg/mL [3] | IC50 [3] | Molecule | Inhibition (%) AGEs [2] | recombinant aldose reductase inhibitory activity [4] | rat lens aldose reductase inhibitory activity [5] | other results |
| --- | --- | --- | --- | --- | --- | --- | --- |
| 6.11% | < 0% | > 19.7 µM | COc1c(O)cc2oc(-c3ccc(O)c(O)c3)c(OC3OC(C(=O)O)C(O)C(O)C3O)c(=O)c2c1O (stereo not shown) [compound 8, patuletin-3-glucuronide] | 6.11% | – | – | – |
| 15.40% | 10.7% | > 20.9 µM | O=C(O)C1OC(Oc2c(-c3ccc(O)c(O)c3)oc3cc(O)cc(O)c3c2=O)C(O)C(O)C1O (stereo not shown) [compound 9, quercetin-3-O-glucuronide] | 23.96% | – | – | – |
| 46.20% | 10.6% | > 19.4 µM | O=C(/C=C/c1ccc(O)c(O)c1)O[C@@H]1C[C@](OC(=O)/C=C/c2ccc(O)c(O)c2)(C(=O)O)C[C@@H](O)[C@H]1O [compound 11, 1,5-di-O-caffeoylquinic acid] | 25.04% | strong | strong | – |
| 38.37% | 22.3% | > 19.4 µM | O=C(/C=C/c1ccc(O)c(O)c1)O[C@@H]1C[C@@](OC(=O)/C=C/c2ccc(O)c(O)c2)(C(=O)O)C[C@@H](O)[C@@H]1O [compound 12, 1,3-di-O-caffeoylquinic acid] | 40.19% | strong | strong | – |
| 5.82% | < 0% | > 19.8 µM | OC[C@H]1O[C@H](OC[C@H]2O[C@H](O[C@]3(CO)O[C@H](CO)[C@@H](O)[C@@H]3O)[C@H](O)[C@@H](O)[C@@H]2O)[C@H](O)[C@@H](O)[C@H]1O [compound 14, raffinose] | 14.99% | – | – | – |
